Test results published in article PMC8232766, “Chemical Composition and Immunomodulatory Activity of Essential Oils from Rhododendron albiflorum” (Molecules, 2021).

Experiments:
PIM1 = molecular target: T1, PIM1 (Homo sapiens, UniProt P11309); experiment: KINOMEscan kinase Kd determination, PIM1; assay type: binding; settings: maximum concentration of 33 µM
T1 construct: purchased Eurofins Pharma Discovery, San Diego, CA, USA (KINOMEscan service)
Experimental: (§1) KINOMEscan®® was used to determine the dissociation constant (Kd) of the indicated sesquiterpenes for selected kinases (Eurofins Pharma Discovery, San Diego, CA, USA). […] Assays were performed in duplicate, and the average mean value is shown.

FPR2-HL60 cells = molecular target: T2, FPR2-HL60 cells (Homo sapiens, UniProt P25090); experiment: Inhibition of WKYMVM-induced Ca2+ influx in FPR2-HL60 cells; assay type: cell-based; settings: pure compounds; 10 min preincubation; induced by 5 nM WKYMVM
T2 construct: expressed in transfected cells
T2 sequence (P25090 1-351): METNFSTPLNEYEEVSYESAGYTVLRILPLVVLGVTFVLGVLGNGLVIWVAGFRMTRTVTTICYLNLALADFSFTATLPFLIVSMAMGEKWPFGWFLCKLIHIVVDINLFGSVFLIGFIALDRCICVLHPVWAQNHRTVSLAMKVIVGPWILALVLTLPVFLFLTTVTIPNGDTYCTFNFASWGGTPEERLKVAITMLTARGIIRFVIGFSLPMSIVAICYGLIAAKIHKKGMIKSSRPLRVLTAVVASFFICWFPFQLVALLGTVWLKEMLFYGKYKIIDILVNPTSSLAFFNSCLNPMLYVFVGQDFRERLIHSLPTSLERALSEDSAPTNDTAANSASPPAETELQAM
Experimental: (§2) Human promyelocytic leukemia HL60 cells stably transfected with FPR1 (FPR1-HL60 cells) or FPR2 (FPR2-HL60 cells) were kindly provided by Dr. Marie-Josephe Rabiet, INSERM, Grenoble, France. These cells were cultured in RPMI 1640 medium containing 10% heat-inactivated fetal calf serum, 10 mM HEPES, 100 μg/mL streptomycin, 100 U/mL penicillin, and G418 (1 mg/mL). G418 was removed before assays were performed.
(§3) Changes in intracellular Ca^2+ concentrations ([Ca^2+]i) in human neutrophils were measured with a FlexStation 3 scanning fluorometer (Molecular Devices), as previously described. To assess the direct effects of test compounds or pure essential oils on Ca^2+ influx, the compounds/oils were added to the wells (final concentration of DMSO was 1%), and changes in fluorescence were monitored (λex = 485 nm, λem = 538 nm) every 5 s for 240 s at room temperature after addition of the test compound. To evaluate inhibitory effects of the compounds on FPR1/FPR2-dependent Ca^2+ influx, the compounds were added to the wells (final concentration of DMSO was 1%) with cells (human neutrophils or FPR1/FPR2 HL60 cells). The samples were preincubated for 10 min, followed by addition of 5 nM fMLF (for human neutrophils or FPR1-HL60 cells) or 5 nM WKYMVM (for FPR2-HL60 cells). The maximum change in fluorescence, expressed in arbitrary units over baseline, was used to determine the agonist response. Responses were normalized to the response induced by 5 nM fMLF or 5 nM WKYMVM, which were assigned as 100%.
(§4) For all Ca^2+ influx experiments, curve fitting (at least five or six points) and calculation of median effective concentration values (EC50 or IC50) were performed by nonlinear regression analysis of the dose–response curves generated using Prism 7 (GraphPad Software, Inc., San Diego, CA, USA).

human neutrophils [1] = experiment: Ca2+ influx (direct effect) in human neutrophils; assay type: cell-based; settings: pure compounds, direct effect on [Ca2+]i, mean ± SD of three experiments; for EC50: Homo sapiens, Neutrophil
Source text: (§5) For isolation of human neutrophils, blood was collected from healthy donors in accordance with a protocol approved by the Institutional Review Board at Montana State University (Protocol #MQ041017), as described previously. Isolated neutrophils were washed and resuspended in HBSS^–. Neutrophil preparations were routinely >95% pure and >98% viable. Neutrophils were obtained from multiple different donors (n = 8); however, the cells from different donors were never pooled during experiments.
as §3, §4

human neutrophils [2] = experiment: Inhibition of fMLF-induced Ca2+ influx in human neutrophils; assay type: cell-based; settings: pure compounds, 10 min preincubation, induced by 5 nM fMLF; for IC50: Homo sapiens, Neutrophil
Source text: as §5, §3, §4

[3] = tested on: human C20 microglial cells; experiment: Inhibition of fMLF-induced Ca2+ influx in C20 microglial cells; assay type: cell-based; settings: 10 min, pure compounds, 10 min incubation, induced by 10 μM fMLF
Experimental: (§6) Human C20 microglial cells were kindly provided by Dr. David Alvarez-Carbonell (Department of Molecular Biology and Microbiology, Case Western Reserve University, Cleveland, OH, USA); these are immortalized primary human microglial cells that maintain characteristics of primary microglial cells. C20 cells were grown at 37 °C and 5% CO2 in DMEM:F12 medium supplemented with 10% FBS, 2.5 mM L-glutamine, 110 mg/L sodium pyruvate, 15 mM HEPES, 100 μg/mL normocin, 100 μg/mL streptomycin, and 100 U/mL penicillin.
(§7) For analysis of Ca^2+ influx in C20 microglial cells, the cells were plated in 96-well black, clear bottom plates at 10^4 cells/well in DMEM/F12 medium containing 10% FBS. The cells were treated with 200 nM PMA for 24 h, and the medium was changed every day for 5 days. On day 5, the cells were loaded with FLIPR Calcium 5 (Molecular Devices) at a volume ratio of 1:1 for 30 min at 37 °C in the dark. The plates were then placed in a FlexStation 3 fluorometer, and basal fluorescence was measured (λex = 485 nm, λem = 538 nm). Essential oils or individual compounds of interest were added manually (final concentration of DMSO was 1%), and fluorescence was monitored for 2 min to assess the direct effects of these treatments on [Ca^2+]i. After a 10 min incubation at 37 °C, the fluorescence baseline was recorded again, and 10 µM fMLF was added to evaluate inhibitory effects on agonist-induced [Ca^2+]i. Responses were normalized to the response induced by 10 µM fMLF.
as §4

human neutrophils [4] = experiment: Neutrophil chemotaxis assay (fMLF-induced); assay type: cell-based; settings: pure compounds, chemotaxis induced by 1 nM fMLF; for IC50: Homo sapiens, Neutrophil
Source text: as §5
Human neutrophils were resuspended in HBSS^+ containing 2% (v/v) heat-inactivated fetal bovine serum (2 × 10^6 cells/mL), and chemotaxis was analyzed in 96-well ChemoTx chemotaxis chambers (Neuroprobe, Gaithersburg, MD), as described previously. Curve fitting (at least eight to nine points) and calculation of median effective concentration values (IC50) were performed by nonlinear regression analysis of the dose-response curves generated using GraphPad Prism 8.

JNK3 = molecular target: T3, JNK3 (Homo sapiens, UniProt P53779); experiment: KINOMEscan kinase Kd determination, JNK3; assay type: binding; settings: maximum concentration of 33 µM
T3 construct: purchased Eurofins Pharma Discovery, San Diego, CA, USA (KINOMEscan service)
Experimental: as §1

MAPKAPK2 = molecular target: T4, MAPKAPK2 (Homo sapiens, UniProt P49137); experiment: KINOMEscan kinase Kd determination, MAPKAPK2; assay type: binding; settings: maximum concentration of 33 µM
T4 construct: purchased Eurofins Pharma Discovery, San Diego, CA, USA (KINOMEscan service)
Experimental: as §1

FPR1-HL60 cells = molecular target: T5, FPR1-HL60 cells (Homo sapiens, UniProt P21462); experiment: Inhibition of fMLF-induced Ca2+ influx in FPR1-HL60 cells; assay type: cell-based; settings: pure compounds; 10 min preincubation; induced by 5 nM fMLF
T5 construct: expressed in transfected cells
T5 sequence (P21462 1-350): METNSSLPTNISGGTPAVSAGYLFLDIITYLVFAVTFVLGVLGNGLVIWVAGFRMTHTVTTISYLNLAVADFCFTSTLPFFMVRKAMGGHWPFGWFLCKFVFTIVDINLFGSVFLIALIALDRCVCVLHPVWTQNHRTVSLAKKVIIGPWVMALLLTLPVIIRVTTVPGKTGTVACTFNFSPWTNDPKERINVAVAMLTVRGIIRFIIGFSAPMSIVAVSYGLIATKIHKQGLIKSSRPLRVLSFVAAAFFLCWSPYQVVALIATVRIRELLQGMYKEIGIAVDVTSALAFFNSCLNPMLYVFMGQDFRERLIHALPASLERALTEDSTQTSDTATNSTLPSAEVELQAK
Experimental: as §2, §3, §4

HL60 cells = experiment: Cytotoxicity assay (CellTiter-Glo) in HL60 cells; assay type: cell-based, human; settings: oils up to 25 µg/mL, compounds up to 25 µM
Experimental: Cytotoxicity of essential oils and pure compounds was analyzed in human promyelocytic HL60 cells using a CellTiter-Glo Luminescent Cell Viability Assay Kit (Promega), as described previously.

[5] = tested on: human C20 microglial cells; experiment: Ca2+ influx (direct effect) in C20 microglial cells; assay type: cell-based; settings: pure compounds, direct effect on [Ca2+]i, mean ± SD of three experiments; for EC50: Homo sapiens
Experimental: as §6, §7, §4

T3 sequence (P53779 whole entry): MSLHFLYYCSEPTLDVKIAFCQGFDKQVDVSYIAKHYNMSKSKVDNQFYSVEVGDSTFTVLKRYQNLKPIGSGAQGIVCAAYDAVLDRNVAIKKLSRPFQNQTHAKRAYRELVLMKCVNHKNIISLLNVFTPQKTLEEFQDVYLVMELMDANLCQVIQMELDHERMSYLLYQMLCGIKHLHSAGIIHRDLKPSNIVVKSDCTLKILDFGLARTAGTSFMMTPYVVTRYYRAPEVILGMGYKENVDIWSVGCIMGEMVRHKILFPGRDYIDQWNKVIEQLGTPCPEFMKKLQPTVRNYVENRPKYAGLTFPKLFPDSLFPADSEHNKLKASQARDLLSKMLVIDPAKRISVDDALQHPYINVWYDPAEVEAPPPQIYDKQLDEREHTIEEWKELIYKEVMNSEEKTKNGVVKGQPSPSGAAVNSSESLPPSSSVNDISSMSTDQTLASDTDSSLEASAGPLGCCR
T4 sequence (P49137 whole entry): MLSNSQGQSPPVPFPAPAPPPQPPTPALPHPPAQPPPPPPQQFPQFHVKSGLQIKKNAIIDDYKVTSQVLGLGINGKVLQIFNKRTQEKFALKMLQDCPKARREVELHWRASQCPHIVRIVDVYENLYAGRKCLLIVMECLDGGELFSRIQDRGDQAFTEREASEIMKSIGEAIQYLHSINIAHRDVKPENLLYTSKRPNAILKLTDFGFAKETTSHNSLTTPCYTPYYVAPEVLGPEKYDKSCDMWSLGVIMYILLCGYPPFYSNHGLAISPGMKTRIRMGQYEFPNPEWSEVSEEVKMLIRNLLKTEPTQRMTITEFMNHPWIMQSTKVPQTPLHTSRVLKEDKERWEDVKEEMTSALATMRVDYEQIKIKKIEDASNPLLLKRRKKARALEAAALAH
T1 sequence (P11309 whole entry): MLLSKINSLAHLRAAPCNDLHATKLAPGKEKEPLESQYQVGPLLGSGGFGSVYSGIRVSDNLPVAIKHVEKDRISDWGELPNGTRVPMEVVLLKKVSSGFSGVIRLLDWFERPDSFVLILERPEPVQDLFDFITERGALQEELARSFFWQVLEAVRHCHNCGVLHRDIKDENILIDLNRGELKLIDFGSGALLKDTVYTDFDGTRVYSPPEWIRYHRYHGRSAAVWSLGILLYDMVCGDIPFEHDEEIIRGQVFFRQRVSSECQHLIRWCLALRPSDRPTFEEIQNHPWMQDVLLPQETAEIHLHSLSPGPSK

SMILES | Binding affinity (Kd) toward PIM1 (PIM1) | IC50 (FPR2-HL60 cells) [µM] | EC50 (human neutrophils [1]) [µM] | IC50 (human neutrophils [2]) [µM] | IC50 [3] [µM] | IC50 (human neutrophils [4]) [µM] | Binding affinity (Kd) toward JNK3 (JNK3) | Binding affinity (Kd) toward MAPKAPK2 (MAPKAPK2) | IC50 (FPR1-HL60 cells) [µM] | Cell viability (cytotoxicity), 30 min incubation (HL60 cells) | EC50 [5] [µM] | Ca2+ Influx C20 cells EC50 [5] | Cell viability (cytotoxicity), 2 h incubation (HL60 cells; 2 h) | FPR2-HL60 Ca2+ Influx IC50 (FPR2-HL60 cells) | Ca2+ Influx Neutrophils EC50 (human neutrophils [1]) | Neutrophils Ca2+ Influx IC50 (human neutrophils [2]) | Neutrophils Chemotaxis IC50 (human neutrophils [4]) | FPR1-HL60 Ca2+ Influx IC50 (FPR1-HL60 cells)
C=C[C@]1(C)Cc2occ(C)c2C[C@H]1C(=C)C [Curzerene] | did not observe any binding activity | 16.7 ± 5.5 | 37.6 ± 8.4 | 11 ± 3.8 | 30.7 ± 4.4 | 37.9 ± 2.2 | did not observe any binding activity | did not observe any binding activity | 21.8 ± 6.1 | minimal effects on cell viability | 25.9 ± 5.2 | – | – | – | – | – | – | –
CC(C)=C1C/C=C(\C)CC/C=C(\C)CC1=O [Germacrone] | did not observe any binding activity | 25 ± 7.2 | 24 ± 4.6 | 27.9 ± 8.9 | 10.7 ± 2.3 | 8.5 ± 0.6 | did not observe any binding activity | did not observe any binding activity | 27.7 ± 2.9 | minimal effects on cell viability | 27.7 ± 2.5 | – | – | – | – | – | – | –
C=C1CC[C@@H]2[C@H]([C@H]3[C@H]1CC[C@]3(C)O)C2(C)C [Spathulenol, spathulenol] | did not observe any binding activity | 31.6 ± 5.3 | 39.4 ± 9.5 | 36.2 ± 8.2 | 9.8 ± 3.4 | 4.9 ± 0.8 | did not observe any binding activity | did not observe any binding activity | 32.2 ± 6.4 | minimal effects on cell viability | > 50 | inactive or had very low activity | – | – | – | – | – | –
C[C@@H]1CC[C@H]2[C@@H]1[C@H]1[C@@H](CC[C@]2(C)O)C1(C)C [Viridiflorol, viridiflorol] | did not observe any binding activity | 10.7 ± 3.8 | 6.8 ± 2.3 | 7.8 ± 2.3 | 22.6 ± 3.1 | 18.3 ± 4.1 | did not observe any binding activity | did not observe any binding activity | 19.5 ± 4.7 | minimal effects on cell viability | 27.8 ± 4.6 | – | a little more cytotoxicity | – | – | – | – | –
C=C1C=CC(C(C)C)CC1 (stereo not drawn) [β-Phellandrene, β-phellandrene] | – | > 50 | > 50 | > 50 | > 50 | > 50 | – | – | > 50 | – | > 50 | inactive | – | no effect | inactive | no effect | inactive | no effect
